Experimental data: patent US20210308077A1, “COMBINATIONS INCLUDING BETA-ADRENORECEPTOR AGONISTS FOR TREATMENT OF PARKINSON`S DISEASE AND MOVEMENT DISORDERS” (The Brigham and Women`s Hospital, Inc., priority 2017, published 2021)

What was measured:
[1] = test system: Parkinson's disease; experiment: Norwegian Prescription Database analysis of incident Parkinson's disease; assay type: in vivo, human
Text: We included the entire population of Norway alive on 1 Jan. 2004 by linking the Norwegian National Registry (NNR) with the Norwegian Prescription Database (NorPD) using the unique national identification number. The NNR contains information on all residents in Norway, time of immigration, emigration and death. This information was further linked to the Norwegian National Education Database (NNED) to assess level of education of all participants.
This registry contains complete information on all prescribed drugs dispensed at pharmacies to individuals since 2004. Each prescription includes the national identification number, which makes it possible to generate a precise chronological prescription record for individuals over time, and to link this information to other registries. Drugs are classified according to the Anatomical Therapeutic Chemical classification and doses are reported as defined daily dose (DDD). If the national insurance scheme covers the cost of the drug, the prescription also contains the diagnosis the drug was prescribed for (from 2008: ICD-10 and ICPC; before 2008: local diagnostic code).
The first year of prescription of any antiparkinson drug (N04) was considered year of onset of PD. We used the year 2004 as a washout-period to only include incident cases.
To further limit the chance of reverse causality, we only included users who had been prescribed at least 365 DDD or more of propranolol.
The level of education was categorized into primary education, secondary education, undergraduate education or graduate education. Age at study start was categorized in 5 years intervals. […] Outcome was PD as defined above at time of first prescription of an antiparkinson drug. Participants not developing PD were censored at end of follow-up (31 Dec. 2014), at date of death or date of emigration out of Norway, whichever occurred first. To test for dose-response effects, we categorized participants according to the cumulative number of DDD in 2004-2007 and estimated the RR of developing PD in 2008-2014. […] The hazard ratios were interpreted as rate ratios.

[2] = test system: MPTP mouse model; experiment: controlled trial in the MPTP mouse model; assay type: in vivo; conditions: MPTP 20 mg/kg i.p. five days; clenbuterol 10 mg/kg i.p. once then oral gavage daily for two weeks
Description: Male C57bl/6 mice (8-10 weeks old) were analyzed. N-methyl-4-phenyl-1,2,3,6-tetrahydropyridine (MPTP-HCl; 20 mg/kg, measured as free base; Sigma, St. Louis, Mo.) was administered to mice intraperitoneally once per day for five consecutive days similar to described previously (26,36). Eight MPTP-treated mice assigned to the clenbuterol treatment group received one 10 mg/kg i.p. injection of clenbuterol (two days prior to MPTP treatment start) and then clenbuterol via oral gavage (10 mg/kg) daily for two weeks (starting on the day of the first MPTP treatment). Another eight MPTP-treated mice assigned to the vehicle treatment group received only oral drinking water (without clenbuterol). […]
After overnight postfixation in 4% paraformaldehyde, brains were cryoprotected in 30% sucrose before cryosectioning into […] (used for stereology) free-floating sections, obtained as described previously (36). […] TH+ cells were analyzed by sterological estimates as described previously (36). Briefly, the total number of TH+neurons in the SNc was calculated by optical fractionation using Stereo Investigator (version 6; MicroBrightField, Williston, Vt.). […] Total number of TH+ neurons was determined using the optical fractionator. Adjacent tissue was also stained using cresyl violet (Sigma, 0.01% for 5 min) to confirm cell loss as assessed by TH analysis.

[3] = test system: SNCA mRNA; experiment: SNCA expression in SNCA-triplication iPSC-derived neurons; assay type: cell-based, human; conditions: SNCA-triplication iPSC-derived neurons cultured for 8 weeks, 20 μM for three days
Description: To begin neural differentiation, NPCs were dissociated with accutase and re-plated on matrigel-coated T75 flasks (CytoOne). The next day medium was fully changed to Neural Differentiation (ND) medium, which is NB medium supplemented with recombinant human BDNF and GNDF (both at 10 ng/mL; R&D Systems) and dibutyryl cyclic AMP (500 μM; Sigma), and without FGF-2. Thereafter, media was half-changed every other day. On day 7-9, differentiating neurons were gently dissociated to single cell suspension and then resuspended in pre-chilled Hank's balanced salt solution (HBSS; Gibco/Life Technologies) supplemented with 0.1% bovine serum albumin (Gibco/Life Technologies). After a wash step, cells were plated on 6- or 24-well plates pre-coated with poly-ornithine and laminin (BD Biocoat). […]
Total RNA from flash-frozen mice brain tissue, rodent primary cells, human neuroblastoma cells and iPSC-derived neuronal cells was isolated using TRIzol® (Life Technologies) following the manufacturer's protocol. RNA concentration was measured using NanoDrop spectrophotometer (Thermo Fisher Scientific, Wilmington, De.). […] Quantitative PCR was performed using TaqMan Universal PCR Master Mix (Applied Biosystems) on an ABI 7900HT instrument (Applied Biosystems) as described previously (31). […] Expression values were analyzed using the comparative threshold cycle method (31).

CC(C)NCC(O)COc1cccc2ccccc12 (centres unmarked) [Propranolol, propranolol]
Rate ratio (RR) for Parkinson's disease, age-, sex-adjusted ([1]; ever user vs never user, 11 year follow-up of the entire population of Norway, propranolol: at least 365 defined daily doses): 2.16
Rate ratio (RR) for Parkinson's disease, multivariate adjusted ([1]; ever user vs never user, 11 year follow-up, adjusted for age, sex and level of education, propranolol: at least 365 defined daily doses): 2.20
Rate ratio for Parkinson's disease with time lag between first exposure and PD onset ([1]; time lags of one and two years, only cardiovascular diagnoses): 1.82

CC(C)(C)NCC(O)c1ccc(O)c(CO)c1 (centres unmarked) [Salbutamol, salbutamol]
Rate ratio (RR) for Parkinson's disease during 2008-2014, multivariate adjusted ([1]; High (≥180 DDD) prescribed during 2004-2007, vs never user): 0.45 (0.31-0.67)
Rate ratio (RR) for Parkinson's disease during 2008-2014, multivariate adjusted ([1]; Medium (60-180 DDD) prescribed during 2004-2007, vs never user): 0.60 (0.40-0.91)

CC(C)(C)NCC(O)c1cc(Cl)c(N)c(Cl)c1 (centres unmarked) [clenbuterol]
TH+ neurons in the SNpc [2]: abrogated the MPTP-induced loss of TH+ neurons
cresyl-violet (CV) stained cells in the SNpc [2]: blocked the loss of cresyl-violet (CV) stained cells
SNCA expression [3]: reduced
